The record followed here is patent US20260137703A1, “2-AMINO-PYRIDO[2,3-D]PYRIMIDIN-7(8H)-ONE AND 7-AMINO-1-PYRIMIDO[4,5-D]PYRIMIDIN-2(1 H)-ONE DERIVATIVES AS EGFR INHIBITORS FOR THE TREATMENT OF CANCER” (Cancer Research Technology Limited, priority 2022, published 2026).

Assay [1] addresses T1, Phospho-EGFR (Tyr1068) in H1975 C797S cells (CRISPR-edited EGFR C797S) (Homo sapiens, UniProt P00533, C797S/L858R/T790M).
T1 construct: host or cells: H1975 C797S (CRISPR-edited)
In words: HTRF pEGFR/total EGFR in H1975 C797S cells. The assay is classed as cell-based. The note with it: ratio pEGFR/total EGFR, compound 3 hours. The method, boiled down: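 Readout is the HTRF-measured Tyr1068 phospho-EGFR to total EGFR ratio, normalised to the 0 μM control as percent. Preceding this, CRISPR-edited H1975 C797S cells, plated 24 h earlier, were exposed 3 h to duplicate compound doses in medium with 0.1% DMSO, then lysed on a shaker.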
A general note: TR-FRET usually uses a lanthanide donor and a delayed reading to cut background.

The target of assay [2] is T2, Phospho-EGFR (Tyr1068) in A431 cells (Homo sapiens, UniProt P00533).
T2 construct: endogenous in cells; host or cells: A431
In words: HTRF pEGFR/total EGFR in A431 cells with EGF stimulation. It counts as cell-based. The note with it: ratio pEGFR/total EGFR, compound 2.5 hours then 100 ng/ml EGF 30 mins. The method, boiled down: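 Values are pEGFR(Tyr1068)/total EGFR HTRF ratios (665/620 nm) given as percent of the 0 μM control. Adhered A431 cells (20,000 per well, 24 h) had 2.5 h compound pretreatment in 0.1% DMSO, then 30 min of 100 ng/ml EGF before lysis.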

Assay [3] addresses T3, Phospho-EGFR (Tyr1068) in H1975 cells (Homo sapiens, UniProt P00533, L858R/T790M).
T3 construct: host or cells: H1975
In words: HTRF pEGFR/total EGFR in H1975 cells. It counts as cell-based. The note with it: ratio pEGFR/total EGFR, compound 3 hours. The method, boiled down:
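Readout is the phospho-EGFR (Tyr1068) to total EGFR HTRF ratio, expressed relative to 0 μM control. Adhered H1975 cells were exposed to compound for 3 hours at 0.1% DMSO, duplicate wells, then lysed for 30 min at room temperature before two-wavelength fluorescence reading.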

Assay [4] addresses CtermHisTag-mEGFR Wild type (Homo sapiens, UniProt P00533). As to the kind of experiment: biochemical.

T1 sequence (P00533 25-1210 T790M/C797S/L858R): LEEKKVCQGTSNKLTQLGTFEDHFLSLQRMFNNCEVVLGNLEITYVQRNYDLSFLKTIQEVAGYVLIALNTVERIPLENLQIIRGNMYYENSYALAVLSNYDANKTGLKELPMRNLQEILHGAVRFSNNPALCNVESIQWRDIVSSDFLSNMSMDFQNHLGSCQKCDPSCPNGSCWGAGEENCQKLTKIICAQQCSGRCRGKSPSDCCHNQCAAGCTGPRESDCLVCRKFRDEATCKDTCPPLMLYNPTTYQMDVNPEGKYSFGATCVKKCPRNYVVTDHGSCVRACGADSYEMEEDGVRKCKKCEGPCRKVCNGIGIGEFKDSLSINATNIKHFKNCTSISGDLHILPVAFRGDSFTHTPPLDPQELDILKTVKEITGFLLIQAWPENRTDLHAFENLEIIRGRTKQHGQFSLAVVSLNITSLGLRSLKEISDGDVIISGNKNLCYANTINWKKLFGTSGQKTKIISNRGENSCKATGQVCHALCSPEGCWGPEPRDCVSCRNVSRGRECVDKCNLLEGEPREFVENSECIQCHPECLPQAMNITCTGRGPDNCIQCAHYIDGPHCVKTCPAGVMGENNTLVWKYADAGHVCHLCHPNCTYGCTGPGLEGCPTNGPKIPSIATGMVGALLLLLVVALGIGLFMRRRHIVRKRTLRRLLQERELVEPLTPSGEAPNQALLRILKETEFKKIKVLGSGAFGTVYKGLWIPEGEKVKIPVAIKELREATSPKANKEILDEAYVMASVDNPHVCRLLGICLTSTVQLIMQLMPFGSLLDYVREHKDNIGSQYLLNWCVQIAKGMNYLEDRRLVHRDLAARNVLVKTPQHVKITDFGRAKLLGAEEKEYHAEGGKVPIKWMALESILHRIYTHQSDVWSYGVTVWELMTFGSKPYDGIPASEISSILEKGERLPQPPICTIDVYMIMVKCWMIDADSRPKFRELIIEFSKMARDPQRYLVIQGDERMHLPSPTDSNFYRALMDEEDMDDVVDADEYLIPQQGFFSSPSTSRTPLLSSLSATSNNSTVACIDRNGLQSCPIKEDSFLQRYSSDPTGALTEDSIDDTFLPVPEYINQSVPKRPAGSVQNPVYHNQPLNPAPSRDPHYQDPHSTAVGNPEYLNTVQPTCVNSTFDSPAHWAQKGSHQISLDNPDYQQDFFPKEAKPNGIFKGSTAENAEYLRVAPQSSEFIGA
T2 sequence (P00533 25-1210): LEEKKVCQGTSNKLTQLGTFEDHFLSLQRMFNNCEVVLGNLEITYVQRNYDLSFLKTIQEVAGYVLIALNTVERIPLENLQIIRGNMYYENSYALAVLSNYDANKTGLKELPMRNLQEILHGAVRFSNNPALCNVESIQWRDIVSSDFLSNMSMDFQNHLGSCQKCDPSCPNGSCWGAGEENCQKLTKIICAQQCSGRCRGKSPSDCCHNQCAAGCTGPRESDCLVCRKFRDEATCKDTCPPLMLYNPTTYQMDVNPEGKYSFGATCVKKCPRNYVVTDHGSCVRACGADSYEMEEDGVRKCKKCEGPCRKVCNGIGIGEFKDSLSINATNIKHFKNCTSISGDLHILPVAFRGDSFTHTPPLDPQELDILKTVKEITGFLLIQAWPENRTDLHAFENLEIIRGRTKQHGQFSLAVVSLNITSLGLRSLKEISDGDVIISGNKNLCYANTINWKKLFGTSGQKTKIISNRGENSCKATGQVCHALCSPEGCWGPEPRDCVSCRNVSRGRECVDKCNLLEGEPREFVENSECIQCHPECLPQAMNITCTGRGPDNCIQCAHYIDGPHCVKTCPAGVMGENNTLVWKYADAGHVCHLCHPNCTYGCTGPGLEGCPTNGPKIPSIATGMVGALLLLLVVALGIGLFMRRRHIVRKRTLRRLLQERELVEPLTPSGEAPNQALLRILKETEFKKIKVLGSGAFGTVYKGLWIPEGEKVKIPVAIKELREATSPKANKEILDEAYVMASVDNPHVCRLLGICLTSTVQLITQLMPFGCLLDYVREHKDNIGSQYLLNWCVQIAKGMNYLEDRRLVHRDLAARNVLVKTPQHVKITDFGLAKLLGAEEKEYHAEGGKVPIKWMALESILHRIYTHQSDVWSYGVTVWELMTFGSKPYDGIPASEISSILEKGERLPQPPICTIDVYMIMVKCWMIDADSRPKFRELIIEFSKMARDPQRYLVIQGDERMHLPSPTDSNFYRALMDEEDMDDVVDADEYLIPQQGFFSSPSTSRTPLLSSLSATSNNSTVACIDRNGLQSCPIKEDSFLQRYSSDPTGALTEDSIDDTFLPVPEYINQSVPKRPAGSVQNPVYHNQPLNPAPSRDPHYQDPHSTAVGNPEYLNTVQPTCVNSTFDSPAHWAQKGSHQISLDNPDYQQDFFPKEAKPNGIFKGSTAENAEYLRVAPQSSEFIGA
T3 sequence (P00533 25-1210 T790M/L858R): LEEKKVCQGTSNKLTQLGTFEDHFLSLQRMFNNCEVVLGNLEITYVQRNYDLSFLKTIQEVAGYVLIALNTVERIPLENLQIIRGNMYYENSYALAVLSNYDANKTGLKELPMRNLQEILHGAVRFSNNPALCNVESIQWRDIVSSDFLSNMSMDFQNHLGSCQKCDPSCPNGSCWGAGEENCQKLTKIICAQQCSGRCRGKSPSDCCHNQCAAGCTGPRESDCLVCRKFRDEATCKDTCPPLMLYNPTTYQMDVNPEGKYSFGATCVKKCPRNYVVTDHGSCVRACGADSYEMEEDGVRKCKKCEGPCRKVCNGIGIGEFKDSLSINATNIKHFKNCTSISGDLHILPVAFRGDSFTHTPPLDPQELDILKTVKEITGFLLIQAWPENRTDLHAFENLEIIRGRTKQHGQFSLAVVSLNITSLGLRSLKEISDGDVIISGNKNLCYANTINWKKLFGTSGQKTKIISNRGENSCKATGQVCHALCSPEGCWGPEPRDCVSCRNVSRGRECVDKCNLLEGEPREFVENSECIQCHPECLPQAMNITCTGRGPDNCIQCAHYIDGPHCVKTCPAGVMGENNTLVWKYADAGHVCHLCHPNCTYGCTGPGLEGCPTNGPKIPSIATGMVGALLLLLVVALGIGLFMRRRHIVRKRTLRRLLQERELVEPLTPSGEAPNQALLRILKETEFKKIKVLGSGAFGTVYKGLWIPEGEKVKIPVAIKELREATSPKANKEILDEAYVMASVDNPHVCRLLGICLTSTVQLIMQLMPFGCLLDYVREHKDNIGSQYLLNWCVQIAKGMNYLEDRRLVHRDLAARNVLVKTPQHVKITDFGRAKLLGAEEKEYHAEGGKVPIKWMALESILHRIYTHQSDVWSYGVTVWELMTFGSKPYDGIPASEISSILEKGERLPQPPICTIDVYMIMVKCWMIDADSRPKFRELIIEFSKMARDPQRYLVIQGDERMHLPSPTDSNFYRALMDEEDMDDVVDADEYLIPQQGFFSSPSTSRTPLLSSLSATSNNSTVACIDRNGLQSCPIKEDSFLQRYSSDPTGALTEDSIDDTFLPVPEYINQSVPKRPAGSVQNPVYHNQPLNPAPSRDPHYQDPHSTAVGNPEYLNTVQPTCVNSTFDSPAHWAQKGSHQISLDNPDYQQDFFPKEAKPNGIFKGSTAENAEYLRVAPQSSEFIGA
Chain of CtermHisTag-mEGFR Wild type (P00533 whole entry): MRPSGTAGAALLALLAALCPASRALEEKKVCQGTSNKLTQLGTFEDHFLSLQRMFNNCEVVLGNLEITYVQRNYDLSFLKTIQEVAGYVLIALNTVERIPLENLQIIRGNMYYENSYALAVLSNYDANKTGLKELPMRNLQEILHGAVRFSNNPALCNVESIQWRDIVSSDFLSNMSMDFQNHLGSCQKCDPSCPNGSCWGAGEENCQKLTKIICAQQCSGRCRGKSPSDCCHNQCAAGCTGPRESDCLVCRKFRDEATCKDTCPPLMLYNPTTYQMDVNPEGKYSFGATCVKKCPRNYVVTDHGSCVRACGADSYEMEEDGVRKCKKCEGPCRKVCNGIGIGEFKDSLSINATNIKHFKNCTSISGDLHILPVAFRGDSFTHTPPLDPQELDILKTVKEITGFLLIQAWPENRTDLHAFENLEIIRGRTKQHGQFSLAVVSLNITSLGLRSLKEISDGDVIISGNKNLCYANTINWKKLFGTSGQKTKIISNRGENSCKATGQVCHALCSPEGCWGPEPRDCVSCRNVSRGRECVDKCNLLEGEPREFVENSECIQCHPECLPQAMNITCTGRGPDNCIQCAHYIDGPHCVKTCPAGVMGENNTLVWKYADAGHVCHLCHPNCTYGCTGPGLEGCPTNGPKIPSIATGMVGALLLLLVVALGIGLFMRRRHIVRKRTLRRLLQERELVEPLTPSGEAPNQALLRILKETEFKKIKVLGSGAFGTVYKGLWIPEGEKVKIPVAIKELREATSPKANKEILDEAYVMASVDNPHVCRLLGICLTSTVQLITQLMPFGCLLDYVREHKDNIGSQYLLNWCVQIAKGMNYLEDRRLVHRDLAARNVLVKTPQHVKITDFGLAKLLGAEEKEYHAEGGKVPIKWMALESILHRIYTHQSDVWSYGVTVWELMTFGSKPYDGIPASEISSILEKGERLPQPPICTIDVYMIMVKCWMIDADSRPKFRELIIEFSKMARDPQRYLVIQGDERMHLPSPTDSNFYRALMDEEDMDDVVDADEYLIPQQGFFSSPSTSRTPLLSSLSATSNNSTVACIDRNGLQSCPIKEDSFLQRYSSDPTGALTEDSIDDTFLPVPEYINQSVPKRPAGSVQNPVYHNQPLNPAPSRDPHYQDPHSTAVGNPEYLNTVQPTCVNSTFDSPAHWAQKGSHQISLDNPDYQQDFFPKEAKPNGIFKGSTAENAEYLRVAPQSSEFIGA

A word on the IC50: it is the concentration at which inhibition is half-maximal. Turning to `C#Cc1cc(=O)n([C@H]2CC[C@@H](NC(=O)CN(C)C)CC2)c2nc(Nc3ccc(N4CCN(C)CC4)cc3)ncc12` [Example 100, 2-(Dimethylamino)-N-[(1s,4s)-4-(5-ethynyl-2-{[4-(4-methylpiperazin-1-yl)phenyl]amino}-7-oxopyrido[2,3-d]pyrimidin-8-yl)cyclohexyl]acetamide], the IC50 in assay [1] is less than 0.5 µM; in assay [2], 1 to 3 µM; in assay [3], less than 0.5 µM; in assay [4], 1 to 10 µM.

With `C#Cc1cc(=O)n(-c2cccc(N)c2)c2nc(Nc3ccccc3OC)ncc12` [Example 55, 8-(3-Aminophenyl)-5-ethynyl-2-((2-methoxyphenyl)amino)pyrido[2,3-d]pyrimidin-7(8H)-one], the IC50 in assay [1] was more than 3 µM; in assay [2] it was more than 3 µM; in assay [3], 1 to 3 µM; in assay [4] it was 1 to 10 µM.

As for `C#Cc1c(C)c(=O)n(Cc2cnn(C)c2)c2nc(Nc3ccc(N4CCN(C)CC4)cc3)ncc12` [Example 180, 5-Ethynyl-6-methyl-2-{[4-(4-methylpiperazin-1-yl)phenyl]aminol}-8-[(1-methylpyrazol-4-yl)methyl]pyrido[2,3-d]pyrimidin-7-one], the IC50 in assay [1] is 1 to 3 µM; in assay [2] it was more than 3 µM; in assay [3], 1 to 3 µM; in assay [4], 1 to 10 µM.

As to `C#Cc1cc(=O)n2c3nc(ncc13)Nc1cccc(c1)COC/C=C\C2` [Example 195, (Z)-1^5-ethynyl-1^7,1^8-dihydro-5-oxa-2-aza-1(2,8)-pyrido[2,3-d]pyrimidina-3(1,3)-benzenacyclononaphan-7-en-1^7-one], the IC50 in assay [1] is more than 3 µM; in assay [2], more than 3 µM; in assay [3], 0.5 to 1 µM; in assay [4], less than 1 µM.

As to `C#Cc1cc(=O)n(C)c2nc(Nc3cc(-c4cnn(C)c4)c(N4CCOCC4)cc3OC)ncc12` [Example 44, 5-Ethynyl-2-{[2-methoxy-5-(1-methylpyrazol-4-yl)-4-(morpholin-4-yl)phenyl]amino}-8-methylpyrido[2,3-d]pyrimidin-7-one], the IC50 is 1 to 3 µM in assay [1], more than 3 µM in assay [2], 0.5 to 1 µM in assay [3] and less than 1 µM in assay [4].

Turning to `C#Cc1cc(=O)n2c3nc(ncc13)Nc1ccc(N3CCN(C)CC3)c(c1)CNCCC2` [Example 199, 1^5-Ethynyl-3^4-(4-methylpiperazin-1-yl)-1^7,1^8-dihydro-2,5-diaza-1(2,8)-pyrido[2,3-d]pyrimidina-3(1,3)-benzenacyclooctaphan-1^7-one], the half-maximal inhibitory concentration (IC50) in assay [1] is more than 3 µM; in assay [2], more than 3 µM; in assay [3], more than 3 µM; in assay [4] it was more than 10 µM.

`C#Cc1c(C)c(=O)n([C@H]2CC[C@H](NC(C)=O)CC2)c2nc(Nc3ccc(N4CCN(C)CC4)cc3)ncc12` [Example 102, N-[(1r,4r)-4-(5-Ethynyl-6-methyl-2-{[4-(4-methylpiperazin-1-yl)phenyl]amino}-7-oxopyrido[2,3-d]pyrimidin-8-yl)cyclohexyl]acetamide]: the IC50 lay within 1 to 3 µM in assay [1], 1 to 3 µM in assay [2], 1 to 3 µM in assay [3] and 1 to 10 µM in assay [4].

As to `C#Cc1cc(=O)n(C)c2nc(Nc3ccc(N4CCN(C)CC4)c(NC(C)=O)c3)ncc12` [Example 50, N-[5-({5-Ethynyl-8-methyl-7-oxopyrido[2,3-d]pyrimidin-2-yl}amino)-2-(4-methylpiperazin-1-yl)phenyl]acetamide], the IC50 in assay [1] is 0.5 to 1 µM; in assay [2], more than 3 µM; in assay [3], less than 0.5 µM; in assay [4], less than 1 µM.

As for `C#Cc1cc(=O)n([C@H]2CC[C@@H](NC(=O)CN(C)C)CC2)c2nc(Nc3ccccc3OC)ncc12` [Example 90, 2-(Dimethylamino)-N-[(1s,4s)-4-{5-ethynyl-2-[(2-methoxyphenyl)amino]-7-oxopyrido[2,3-d]pyrimidin-8-yl}cyclohexyl]acetamide], the IC50 in assay [1] was more than 3 µM; in assay [2], more than 3 µM; in assay [3], 1 to 3 µM; in assay [4] it was 1 to 10 µM.

For the molecule `C#Cc1cc(=O)n([C@H]2CC[C@H](NC(C)=O)CC2)c2nc(Nc3ccc(N4CCN(C)CC4)cc3)ncc12` [Example 87, N-[(1r,4r)-4-(5-Ethynyl-2-{[4-(4-methylpiperazin-1-yl)phenyl]amino}-7-oxopyrido[2,3-d]pyrimidin-8-yl)cyclohexyl]acetamide], the IC50 in assay [1] is less than 0.5 µM; in assay [2], more than 3 µM; in assay [3] it was less than 0.5 µM; in assay [4], less than 1 µM.

Take `C#Cc1cc(=O)n(-c2ccccc2)c2nc(Nc3ccc(N(C)CCN(C)C)cc3)ncc12` [Example 34, 2-((4-((2-(Dimethylamino)ethyl)(methyl)amino)phenyl)amino)-5-ethynyl-8-phenylpyrido[2,3-d]pyrimidin-7(8H)-one]: the IC50 in assay [1] is more than 3 µM; in assay [2], more than 3 µM; in assay [3], less than 0.5 µM; in assay [4], less than 1 µM.

Consider `C#Cc1cc(=O)n(C)c2nc(Nc3ccc(N4CCN(C)CC4)c(OCCCC4CCCC4)c3)ncc12` [Example 212, 2-((3-(3-Cyclopentylpropoxy)-4-(4-methylpiperazin-1-yl)phenyl)amino)-5-ethynyl-8-methylpyrido[2,3-d]pyrimidin-7(8H)-one], for which the IC50 was less than 0.5 µM in assay [1], more than 3 µM in assay [2], less than 0.5 µM in assay [3] and less than 1 µM in assay [4].

`C#Cc1c(-c2ccccc2Cl)c(=O)n(C)c2nc(Nc3ccc(N4CCN(C)CC4)cc3)ncc12` [Example 128, 6-(2-chlorophenyl)-5-ethynyl-8-methyl-2-{[4-(4-methylpiperazin-1-yl)phenyl]amino}pyrido[2,3-d]pyrimidin-7-one]: the IC50 was more than 3 µM in assay [1], less than 0.5 µM in assay [2], 0.5 to 1 µM in assay [3] and less than 1 µM in assay [4].

Take `C#Cc1cc(=O)n(C2CCCC2)c2nc(Nc3cccc(CN4CCC(CS(C)(=O)=O)C4)c3)ncc12` (centres unmarked) [Example 182]: the IC50 is more than 3 µM in assay [1], more than 3 µM in assay [2], more than 3 µM in assay [3] and more than 10 µM in assay [4].

Regarding `C#Cc1cc(=O)n(-c2ccccc2)c2nc(Nc3ccc(N4CCC(N5CC(N(C)C)C5)CC4)cc3)ncc12` [Example 29, 2-[(4-{4-[3-(Dimethylamino)azetidin-1-yl]piperidin-1-yl}phenyl)amino]-5-ethynyl-8-phenylpyrido[2,3-d]pyrimidin-7-one], the IC50 was less than 0.5 µM in assay [1], more than 3 µM in assay [2], less than 0.5 µM in assay [3] and less than 1 µM in assay [4].

In the case of `C#Cc1cc(=O)n(C2CCN(C)C2)c2nc(Nc3ccc(N4CCN(C)CC4)cc3)ncc12` (centres unmarked) [Example 107, 5-ethynyl-2-{[4-(4-methylpiperazin-1-yl)phenyl]amino}-8-(1-methylpyrrolidin-3-yl)pyrido[2,3-d]pyrimidin-7-one], the IC50 was 1 to 3 µM in assay [1], more than 3 µM in assay [2], more than 3 µM in assay [3] and more than 10 µM in assay [4].

With `C#Cc1cc(=O)n2c3nc(ncc13)Nc1ccc(N3CCN(C)CC3)c(c1)OCCC[C@H]2C` [Example 239, (R)-1^5-ethynyl-8-methyl-3^4-(4-methylpiperazin-1-yl)-1^7,1^8-dihydro-4-oxa-2-aza-1(2,8)-pyrido[2,3-d]pyrimidina-3(1,3)-benzenacyclooctaphan-1^7-one], the IC50 is less than 0.5 µM in assay [1], more than 3 µM in assay [2], less than 0.5 µM in assay [3] and less than 1 µM in assay [4].

As for `C#Cc1c(C)c(=O)n(C)c2nc(Nc3ccc(N4CCN(C)CC4)cc3)ncc12` [Example 149, 5-ethynyl-6,8-dimethyl-2-{[4-(4-methylpiperazin-1-yl)phenyl]amino}pyrido[2,3-d]pyrimidin-7-one], the IC50 in assay [1] was more than 3 µM; in assay [2], more than 3 µM; in assay [3], more than 3 µM; in assay [4], 1 to 10 µM.

With `C#Cc1cc(=O)n2c3nc(ncc13)Nc1ccc(N3CCN(C)CC3)c(c1)C(=O)NCCC2` [Example 224, 1^5-ethynyl-3^4-(4-methylpiperazin-1-yl)-1^7,1^8-dihydro-2,5-diaza-1(2,8)-pyrido[2,3-d]pyrimidina-3(1,3)-benzenacyclooctaphane-1^7,4-dione], the IC50 in assay [1] was more than 3 µM; in assay [2], more than 3 µM; in assay [3] it was more than 3 µM; in assay [4] it was more than 10 µM.

For the molecule `C#Cc1cc(=O)n2c3nc(ncc13)Nc1ccc(N3CCN(C)CC3)c(c1)CN(C)CCC2` [Example 226, 1^5-Ethynyl-5-methyl-3^4-(4-methylpiperazin-1-yl)-1^7,1^8-dihydro-2,5-diaza-1(2,8)-pyrido[2,3-d]pyrimidina-3(1,3)-benzenacyclooctaphan-1^7-one], the IC50 in assay [1] is less than 0.5 µM; in assay [2], more than 3 µM; in assay [3], less than 0.5 µM; in assay [4], less than 1 µM.
